Experimental data: ChEMBL document CHEMBL4177634, “6-Substituted quinolines as RORγt inverse agonists” (Bioorg Med Chem Lett, 2017)
pKd: −log10 of the molar value.

Target: T1, Nuclear receptor ROR-gamma (Homo sapiens, UniProt P51449)
T1 sequence (P51449 whole entry): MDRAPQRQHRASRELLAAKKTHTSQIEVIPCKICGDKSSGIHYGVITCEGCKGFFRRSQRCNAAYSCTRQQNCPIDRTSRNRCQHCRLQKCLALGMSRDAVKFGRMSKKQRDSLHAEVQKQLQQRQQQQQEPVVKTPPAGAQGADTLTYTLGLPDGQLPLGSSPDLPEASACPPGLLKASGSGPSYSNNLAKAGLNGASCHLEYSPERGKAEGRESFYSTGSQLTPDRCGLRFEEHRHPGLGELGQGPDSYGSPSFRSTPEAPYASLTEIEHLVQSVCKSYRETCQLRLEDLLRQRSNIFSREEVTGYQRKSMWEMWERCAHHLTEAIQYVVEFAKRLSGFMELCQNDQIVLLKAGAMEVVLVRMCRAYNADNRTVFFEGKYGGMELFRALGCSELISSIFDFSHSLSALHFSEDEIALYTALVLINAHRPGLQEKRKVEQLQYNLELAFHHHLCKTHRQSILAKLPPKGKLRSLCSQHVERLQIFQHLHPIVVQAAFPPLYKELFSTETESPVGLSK
Experiment: Displacement of 1,8-ANS from human N-terminal His-tagged RORgammat LBD ([…]) expressed in Escherichia coli by thermofluor assay

- pKd: 8.44
Structure (SMILES): COc1nc2ccc(C(O)(c3ccccc3)C3CCN(C(C)=O)CC3)cc2c(Cl)c1Cc1ccc(-n2cccn2)cc1 (stereo in doubt; 25a)
